Among the data in ChEMBL document CHEMBL1201862, “PubChem BioAssay data set” (2004) are AC50 and EC50 values, retold here.

Broadly, the AC50 is the concentration at which the activity in the assay is half-maximal. As usually defined, the EC50 is the concentration at which the effect is half-maximal.

Activity calls are given as the source filed them. A value given as a limit tells only on which side of the number the result lay.

Targets include Cytochrome P450 2C9 (Homo sapiens, UniProt P11712); Cytochrome P450 2D6 (Homo sapiens, UniProt P10635); Cytochrome P450 3A4 (Homo sapiens, UniProt P08684).
The target of another data set is Cytochrome P450 2C19 (Homo sapiens, UniProt P33261). The data set can be described thus: Cytochrome panel assay with activity outcomes. Panel member name: p450-cyp2c19 Compounds with AC50 equal or less than 10 uM are considered active. Type of data set: functional.
Sequence of Cytochrome P450 2C19 (P33261 whole entry): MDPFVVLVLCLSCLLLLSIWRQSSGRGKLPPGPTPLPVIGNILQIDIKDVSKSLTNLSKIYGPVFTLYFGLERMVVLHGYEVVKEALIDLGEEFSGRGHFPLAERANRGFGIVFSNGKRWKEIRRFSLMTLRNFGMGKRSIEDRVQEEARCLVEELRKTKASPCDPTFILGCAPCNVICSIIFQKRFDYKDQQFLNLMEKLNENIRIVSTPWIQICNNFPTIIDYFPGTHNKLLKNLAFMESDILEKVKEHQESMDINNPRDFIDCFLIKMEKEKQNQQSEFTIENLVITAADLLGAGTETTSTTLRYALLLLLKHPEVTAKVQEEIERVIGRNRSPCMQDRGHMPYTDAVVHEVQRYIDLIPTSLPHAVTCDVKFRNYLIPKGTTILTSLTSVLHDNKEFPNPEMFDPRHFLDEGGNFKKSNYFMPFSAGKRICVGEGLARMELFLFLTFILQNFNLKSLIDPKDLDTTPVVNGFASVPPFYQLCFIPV
The subject of another data set is Streptococcus. The data set can be described thus: GAS UMAA2166 growth inhibition – luminescence, BacTiterGlo, counter-screen for streptokinase expression inhibitor project, dose response (AID 1915).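 Also: potency for reduction of bacterial viability or growth.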 Type of data set: functional, organism-based.
Data set [1] concerns Streptococcus sp. 'group A'. In words: Streptococcus pyogenes SK(-)GAS viability under kanamycin – luminescence, BacTiterGlo, confirmation, counter-screen for streptokinase expression inhibitor project, dose response (AID 1900). Type of data set: functional, organism-based. On the technique in general: Counterscreens check selectivity or assay interference.
Data set [2] can be described thus: NIH3T3 cell viability loss – ATP luminescence, mouse fibroblasts, counter-screen, dose response (AID 2010).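 Also: cells exposed to compound for about 90 hours before reading.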 Type of data set: functional, cell-based.
Data set [3] in a line: Trypanosoma cruzi growth suppression in host cells – NIH3T3 host cells, beta-gal luminescence, confirmation (AID 2044).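 Also: intracellular parasites grown in NIH/3T3 mouse fibroblasts as host cells; luminescent beta-galactosidase reporter signal from transgenic T. cruzi replicating inside host cells; inhibitors lower the luminescence signal.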 Type of data set: functional, cell-based.

Sequence of Cytochrome P450 2C9 (P11712 whole entry): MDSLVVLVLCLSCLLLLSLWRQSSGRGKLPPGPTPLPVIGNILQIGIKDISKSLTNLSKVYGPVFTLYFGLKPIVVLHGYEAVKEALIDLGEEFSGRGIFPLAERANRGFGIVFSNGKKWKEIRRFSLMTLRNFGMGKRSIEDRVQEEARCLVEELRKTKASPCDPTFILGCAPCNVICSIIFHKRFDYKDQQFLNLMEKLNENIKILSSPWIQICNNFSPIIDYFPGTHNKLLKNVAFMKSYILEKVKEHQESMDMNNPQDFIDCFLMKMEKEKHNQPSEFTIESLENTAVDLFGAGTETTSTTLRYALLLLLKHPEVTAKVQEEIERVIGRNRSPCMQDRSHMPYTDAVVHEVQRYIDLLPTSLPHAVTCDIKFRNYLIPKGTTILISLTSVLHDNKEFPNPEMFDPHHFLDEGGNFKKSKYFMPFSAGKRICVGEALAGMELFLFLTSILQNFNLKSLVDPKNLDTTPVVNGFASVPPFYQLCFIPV
Sequence of Cytochrome P450 3A4 (P08684 whole entry): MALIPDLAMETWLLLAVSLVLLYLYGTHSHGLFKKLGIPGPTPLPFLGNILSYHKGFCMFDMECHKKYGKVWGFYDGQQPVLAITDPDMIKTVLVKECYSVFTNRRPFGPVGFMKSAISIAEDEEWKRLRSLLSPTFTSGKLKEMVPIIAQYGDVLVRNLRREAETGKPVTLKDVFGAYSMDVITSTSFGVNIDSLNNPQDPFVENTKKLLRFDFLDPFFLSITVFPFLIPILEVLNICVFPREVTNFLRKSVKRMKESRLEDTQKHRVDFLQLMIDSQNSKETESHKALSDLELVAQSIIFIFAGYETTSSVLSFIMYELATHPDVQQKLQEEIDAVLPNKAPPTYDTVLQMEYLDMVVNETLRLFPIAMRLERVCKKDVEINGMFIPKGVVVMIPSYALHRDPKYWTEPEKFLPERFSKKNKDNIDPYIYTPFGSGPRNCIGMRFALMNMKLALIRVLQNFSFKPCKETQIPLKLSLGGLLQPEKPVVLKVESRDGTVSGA
Sequence of Cytochrome P450 2D6 (P10635 whole entry): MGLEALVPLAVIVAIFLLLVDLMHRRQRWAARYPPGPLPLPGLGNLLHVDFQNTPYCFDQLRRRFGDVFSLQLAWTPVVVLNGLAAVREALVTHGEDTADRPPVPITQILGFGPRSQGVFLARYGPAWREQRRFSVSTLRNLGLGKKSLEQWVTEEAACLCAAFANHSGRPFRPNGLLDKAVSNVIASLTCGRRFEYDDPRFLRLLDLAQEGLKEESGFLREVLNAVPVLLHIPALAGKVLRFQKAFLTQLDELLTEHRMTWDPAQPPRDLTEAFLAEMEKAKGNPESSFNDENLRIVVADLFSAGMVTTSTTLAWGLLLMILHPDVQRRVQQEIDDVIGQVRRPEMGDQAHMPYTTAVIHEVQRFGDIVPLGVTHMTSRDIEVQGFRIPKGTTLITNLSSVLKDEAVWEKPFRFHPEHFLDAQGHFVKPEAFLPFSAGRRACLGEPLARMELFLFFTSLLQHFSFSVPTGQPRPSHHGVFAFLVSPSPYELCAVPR

As for `COc1ccc(C(=O)c2c[nH]c(C(=O)NCc3cccs3)c2)cc1`, on Cytochrome P450 2C9, the AC50 was 0.251 µM (inconclusive).
In the case of `CCN(CC)CCNC(=O)Cn1nc(-c2ccc(C)cc2)ccc1=O`, the AC50 is 22.4 µM (inconclusive) at Cytochrome P450 2D6 and “inconclusive” on Cytochrome P450 2C19.
With `N=c1nc(N)nc(N)n1-c1ccc(S(N)(=O)=O)cc1`, at Cytochrome P450 2D6, the AC50 was 3.98 µM (inconclusive).
In the case of `Cc1cc(-c2cc(C)c(O)c(C(C)(C)C)c2)cc(C(C)(C)C)c1O`, on Cytochrome P450 2C9, the AC50 is 5.01 µM (inconclusive).
For `CCCCNC(=O)C1CC(=O)N(c2ccc(OC)cc2)C1c1ccc(OC)cc1` (stereo not given), the concentration at half-maximal activity (AC50) at Cytochrome P450 2D6 is 15.8 µM (inconclusive); at Cytochrome P450 2C9 it was 25.1 µM (inconclusive); at Cytochrome P450 2C19 (read-out: AC50), 25.1 µM (inconclusive).
As to `C/C(CCN1CCCCc2nc(C)c(C)cc21)=N\OC[C@@H](C)[C@H](OCc1ccccc1)C(C)C`, on Cytochrome P450 3A4, the concentration at half-maximal activity (AC50) is 3.16 µM (inconclusive).
With `CCCc1ccc(Oc2cc(C)nc(N3CCOCC3)n2)cc1`, the AC50 on Cytochrome P450 2D6 is 14.1 µM (inconclusive).
`CO[C@H]1COC(=O)[C@@H](Cc2ccccc2)NC(=O)[C@@H](C)COC(=O)C/C=C\[C@@H]1C`: the AC50 at Cytochrome P450 3A4 is 6.31 µM (inconclusive).
As for `CC(=O)OCC1=C(C(=O)O)N2C(=O)C(NC(=O)C(C)Cn3nc(C)c(Cl)c3C)C2SC1` (stereo not given), the results for the EC50 (in the data set on Streptococcus; in data set [1]) were 5.07 µM (active) and 3.56 µM (active), respectively.
Take `O=c1c(-c2ccc(F)cc2)nc2cnc(N3CCNCC3)nc2n1Cc1ccc(F)cc1`: the AC50 on Cytochrome P450 2D6 was 20 µM (inconclusive); on Cytochrome P450 2C9, 31.6 µM (inconclusive); on Cytochrome P450 2C19 (read-out: AC50), 39.8 µM (inconclusive).
Take `O=C1C=C(Nc2nc(C(=O)O)cc(=O)[nH]2)c2ccccc2C1=O`: the AC50 on Cytochrome P450 2C19 (read-out: AC50) is 3.16 µM (inconclusive).
As for `Cc1nc(-c2ccccn2)nc(N(C)c2ccccc2)c1Cl`, the EC50 in data set [2] is > 60 µM (not active); in data set [3], 3.26 µM (active).
As for `CCCc1nn2c(O)c(C(c3ccc(C)cc3)c3c(O)n4nc(CCC)sc4nc3=O)c(=O)nc2s1`, the AC50 on Cytochrome P450 2C9 is 12.6 µM (inconclusive).
As for `CCOC(=O)Cn1nnc2c(sc3nc4c(c(-c5ccc(Cl)cc5)c32)CCC4)c1=O`, the AC50 at Cytochrome P450 2C19 (read-out: AC50) is 7.08 µM (inconclusive).
`N#Cc1cccc(-c2nc(N3CCNCC3)c3ccccc3n2)c1`: the AC50 on Cytochrome P450 2D6 was 39.8 µM (inconclusive).
Turning to `COc1ccccc1N1CCN(C(=O)c2ccc3[nH]c4c(c3c2)CC(C)CC4)CC1` (stereo not given), the concentration for a half-maximal effect (EC50) in data set [2] is > 60 µM (not active); in data set [3], 2 µM (active).
Regarding `COC(=O)[C@@]1(Cc2ccc(OC)cc2)[C@H]2c3cc(C(=O)N4CCCC4)n(C[C@H](O)CO)c3C[C@H]2CN1C(=O)c1ccccc1`, the results for the AC50 on Cytochrome P450 2C9 and at Cytochrome P450 2C19 (read-out: AC50) were 31.6 µM (inconclusive) and 39.8 µM (inconclusive), respectively.
Turning to `CO[C@H]1C=CO[C@@]2(C)Oc3c(C)c(O)c4c(O)c(c5c(c4c3C2=O)=NC2(CCN(CC(C)C)CC2)N=5)NC(=O)C(C)=CC=C[C@H](C)[C@H](O)[C@@H](C)[C@@H](O)[C@@H](C)[C@H](OC(C)=O)[C@@H]1C`, the EC50 (in the data set on Streptococcus; in data set [1]) was < 0.06 µM (active) throughout.
As for `COc1ccc(C=O)cc1COc1ccc(C)cc1[N+](=O)[O-]`, the AC50 at Cytochrome P450 2D6 is 14.1 µM (inconclusive); at Cytochrome P450 2C9 it was 4.47 µM (inconclusive).
For `CC(NCC(O)COC1CCC(C(C)(C)C)CC1)c1ccccc1` (stereo not given), the EC50 in data set [2] was > 60 µM (not active); in data set [3], 0.114 µM (active).
As for `CCCCCOc1ccc(Cn2ccnc2)cc1[N+](=O)[O-]`, the concentration for a half-maximal effect (EC50) was > 60 µM (not active) in data set [2] and 2.21 µM (active) in data set [3].
With `N#Cc1ccccc1-c1ccc2ncnc(NCc3cccnc3)c2c1`, at Cytochrome P450 3A4, the half-maximal activity concentration (AC50) is 2 µM (inconclusive).
For `CC(C(=O)NC1C(=O)N2C(C(=O)O)=C(CSc3nnnn3C)CSC12)n1cc(Br)cn1` (stereo not given), the EC50 in the data set on Streptococcus is 0.125 µM (active); in data set [1], 0.101 µM (active).
For the compound `COc1cccc(CN(C)CC2CCCN(CCc3ccccc3C)C2)c1` (stereo not given), the EC50 in data set [2] was 24.6 µM (active); in data set [3] it was 0.184 µM (active).
The matching figures for `COc1ccc(C2CC(c3ccc(C)cc3)Nc3nc(N)nn32)cc1` (stereo not given): > 60 µM (not active) and 7.21 µM (active).
As to `CC(C(=O)Nc1ccc(F)c(F)c1F)N(C)CC(=O)Nc1ccccc1Br` (stereo not given), the results for the EC50 in data set [2] and in data set [3] were > 60 µM (not active) and 1.71 µM (active), respectively.
`CCNc1ncc2nc(-c3ccc(Cl)cc3)c(=O)n(Cc3cccs3)c2n1`: the figures for the AC50 at Cytochrome P450 2D6 and at Cytochrome P450 2C9 were 25.1 µM (inconclusive) and 31.6 µM (inconclusive), respectively.
Regarding `CCN(CC)S(=O)(=O)c1ccc(C)c(NC(=O)Cn2cnc3cc([N+](=O)[O-])ccc3c2=O)c1`, the EC50 was > 60 µM (not active) in data set [2] and 0.406 µM (active) in data set [3].
As to `COc1ccc(NC(=O)COC(=O)c2c3c(nc4ccccc24)CCCC3)cc1`, the AC50 on Cytochrome P450 3A4 was 0.891 µM (inconclusive).
For `Cc1ccc(C)c(N2CCN(C(=O)c3ccc(Cn4c(=O)[nH]c5ccccc5c4=O)cc3)CC2)c1`, the EC50 is > 60 µM (not active) in data set [2] and 0.687 µM (active) in data set [3].
Take `Cc1cc(C(=O)CCl)c(C)n1Cc1ccco1`: the EC50 in data set [2] is 7.2 µM (active); in data set [3] it was 3.3 µM (active).
`CCC(NC(=O)c1ccc([N+](=O)[O-])cc1[N+](=O)[O-])c1ccccc1` (stereo not given): the EC50 is > 60 µM (not active) in data set [2] and 0.879 µM (active) in data set [3].
As for `Cc1ccccc1-c1cc(N(C)Cc2ccco2)ncn1`, the AC50 on Cytochrome P450 2D6 is 39.8 µM (inconclusive).
Consider `CCCCN1C(=O)NC(=O)/C(=C(/CC)NCCCN(C)C)C1=O`, for which the EC50 in data set [2] was > 60 µM (not active); in data set [3], 0.236 µM (active).
As for `Cn1cccc1C(=O)N1CCC[C@@]2(CCN(Cc3nccs3)C2)C1`, the AC50 at Cytochrome P450 2D6 and on Cytochrome P450 2C9 was 31.6 µM (inconclusive) each time.
Turning to `COc1cccc(Cn2c(=O)c(C)nc3cnc(N4CCNCC4)nc32)c1`, at Cytochrome P450 2C19 (read-out: AC50), the half-maximal activity concentration (AC50) is 39.8 µM (inconclusive).
On to `CCN(CC)CCN(C(=O)C1=COCCO1)c1nc2ccc(C)cc2s1`, for which the EC50 in data set [2] is > 60 µM (not active); in data set [3], 0.384 µM (active).
Consider `COc1ccc(-c2nnn(CC(=O)NCCc3c[nH]c4ccccc34)n2)cc1OC`, for which the AC50 on Cytochrome P450 2D6 is 0.0126 µM (inconclusive).
Take `COc1ccc(C(=O)Nc2ccc(S(=O)(=O)N3CCOCC3)cc2)cc1OC`: the AC50 at Cytochrome P450 2D6 is 0.00794 µM (inconclusive); at Cytochrome P450 2C9, 28.2 µM (inconclusive); at Cytochrome P450 2C19 (read-out: AC50), 8.91 µM (inconclusive).
For `COc1ccc(C2(C(=O)N3CCOCC3)CCCC2)cc1`, at Cytochrome P450 3A4, the AC50 was 12.6 µM (inconclusive).
On to `CCCCN(Cc1ccccc1)C(=O)c1cnc2n(c1=O)CCS2`, for which the AC50 on Cytochrome P450 2D6 is 31.6 µM (inconclusive); on Cytochrome P450 2C9, 8.91 µM (inconclusive).
As for `N=C1/C(=N/Nc2cccc(Cl)c2)C(=O)NN1c1ccccc1`, on Cytochrome P450 2C9, the AC50 is 1.26 µM (inconclusive).
As to `COc1cc(/C=N/NC(=O)c2nc3ccccn3c2C)cc(OC)c1O`, the EC50 in data set [2] and in data set [3] was > 60 µM (not active) each time.
Take `COc1ccc(/C=N/NC(N)=S)cc1OC(=O)c1cccc2ccccc12`: at Cytochrome P450 2C9, the AC50 was 6.31 µM (inconclusive).
In the case of `Cc1cc(N/N=C/c2ccc(Cl)cc2)nc(NCc2ccccc2)n1`, the EC50 in data set [2] is 11.4 µM (active); in data set [3] it was 1.82 µM (active).
